In ChEMBL document CHEMBL1201862, “PubChem BioAssay data set” (2004):
Active and inactive are the calls of the source.

Experiments:
[1] = target: Voltage-dependent T-type calcium channel subunit alpha-1H (Homo sapiens, UniProt O95180); experiment: Cav3.2 T-type channel blockers, cell-based, SynthLib3 library, HEK293 Cav3.2, fluorescence (AID 493041); type: functional
[2] = target: T1, Cytochrome P450 1A2 (Homo sapiens, UniProt P05177);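 further: PubChem cytochrome P450 panel assay, CYP1A2 panel member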
T1 sequence (P05177 whole entry): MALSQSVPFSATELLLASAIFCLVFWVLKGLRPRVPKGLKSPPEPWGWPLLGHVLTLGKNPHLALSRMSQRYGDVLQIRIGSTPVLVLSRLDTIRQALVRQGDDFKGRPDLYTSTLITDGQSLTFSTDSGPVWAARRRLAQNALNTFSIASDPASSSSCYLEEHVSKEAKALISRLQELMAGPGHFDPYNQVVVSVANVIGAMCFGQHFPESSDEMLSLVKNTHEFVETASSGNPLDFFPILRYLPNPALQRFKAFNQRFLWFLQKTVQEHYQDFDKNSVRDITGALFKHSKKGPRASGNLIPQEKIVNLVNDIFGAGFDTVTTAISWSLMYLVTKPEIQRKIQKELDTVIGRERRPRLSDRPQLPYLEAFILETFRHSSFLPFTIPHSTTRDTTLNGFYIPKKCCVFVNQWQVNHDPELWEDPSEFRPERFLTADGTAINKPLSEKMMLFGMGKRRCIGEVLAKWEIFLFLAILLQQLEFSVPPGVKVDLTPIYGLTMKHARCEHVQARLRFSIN

[3] = cytotoxicity in MIN6 insulinoma cells, dose response, cytotoxicity control, cell-based, mouse insulinoma (AID 2122); type: functional;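 further: confirmatory high-throughput counterscreen run to flag cytotoxic compounds; mouse MIN-6 beta cells carrying an insulin promoter eGFP reporter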
[4] = insulin promoter down-regulators in MIN6 cells, imaging, high-content screening, mouse beta cells (AID 1628); type: functional
[5] = inhibitors of Trypanosoma cruzi host-cell infection, confirmation, beta-gal luminescence, NIH3T3 host cells (AID 2630); type: functional, cell-based; settings: Mus musculus
[6] = target: T2, Mu-type opioid receptor (Homo sapiens, UniProt P35372); experiment: SAR Analysis of Antagonists of the MOR Receptor using an Image-Based Assay - Set 2. [Related pubchem assays (depositor defined):AID1777, AID1785, AID1786, AID1966, AID2133, AID2136, AID2284, AID2285, AID2420]; type: functional
T2 sequence (P35372 whole entry): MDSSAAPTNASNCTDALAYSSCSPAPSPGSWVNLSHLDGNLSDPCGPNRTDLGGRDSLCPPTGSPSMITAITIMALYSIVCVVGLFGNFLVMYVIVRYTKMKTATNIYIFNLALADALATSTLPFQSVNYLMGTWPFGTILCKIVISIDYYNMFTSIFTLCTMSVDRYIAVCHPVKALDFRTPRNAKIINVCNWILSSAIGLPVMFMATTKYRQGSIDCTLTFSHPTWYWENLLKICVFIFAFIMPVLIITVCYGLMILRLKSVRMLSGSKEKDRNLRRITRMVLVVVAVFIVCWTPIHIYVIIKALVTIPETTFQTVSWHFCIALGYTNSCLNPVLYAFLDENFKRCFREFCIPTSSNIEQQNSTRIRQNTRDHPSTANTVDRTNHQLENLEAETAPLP

[7] = target: T3, Kappa-type opioid receptor (Homo sapiens, UniProt P41145); experiment: SAR analysis of small molecule agonists of the kappa opioid receptor via a luminescent beta-arrestin assay - Set 2. [Related pubchem assays (depositor defined):AID1777, AID1785, AID1786, AID1966, AID2133, AID2136, AID2284, AID449737]; type: functional
T3 sequence (P41145 whole entry): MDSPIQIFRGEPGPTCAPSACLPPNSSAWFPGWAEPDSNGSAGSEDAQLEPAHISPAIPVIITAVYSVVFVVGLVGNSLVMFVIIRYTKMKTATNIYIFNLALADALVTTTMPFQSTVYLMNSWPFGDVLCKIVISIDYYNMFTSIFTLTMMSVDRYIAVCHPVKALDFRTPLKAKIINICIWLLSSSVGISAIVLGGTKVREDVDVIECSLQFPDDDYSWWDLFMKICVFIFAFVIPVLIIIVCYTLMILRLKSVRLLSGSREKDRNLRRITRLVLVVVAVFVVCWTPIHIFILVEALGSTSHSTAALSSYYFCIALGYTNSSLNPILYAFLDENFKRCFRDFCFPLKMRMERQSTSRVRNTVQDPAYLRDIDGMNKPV

[8] = target: T3, Kappa-type opioid receptor; experiment: SAR analysis of Agonists of the Kappa Opioid Receptor (KOR) using an Image-Based Assay - Set 2. [Related pubchem assays (depositor defined):AID1777, AID1786, AID1966, AID2133, AID2136, AID2284, AID2285, AID2359]; type: functional
[9] = target: T3, Kappa-type opioid receptor; experiment: SAR analysis of Antagonists of the Kappa Opioid Receptor (KOR) using an Image-Based Assay - Set 2. [Related pubchem assays (depositor defined):AID1777, AID1785, AID1786, AID1966, AID2133, AID2136, AID2284, AID2285, AID2348]; type: functional
[10] = target: T4, Delta-type opioid receptor (Homo sapiens, UniProt P41143); experiment: SAR Analysis of Agonists of the DOR Receptor using an Image-Based Assay - Set 2. [Related pubchem assays (depositor defined):AID1777, AID1785, AID1786, AID1966, AID2133, AID2136, AID2284, AID2285, AID2370]; type: functional
T4 sequence (P41143 whole entry): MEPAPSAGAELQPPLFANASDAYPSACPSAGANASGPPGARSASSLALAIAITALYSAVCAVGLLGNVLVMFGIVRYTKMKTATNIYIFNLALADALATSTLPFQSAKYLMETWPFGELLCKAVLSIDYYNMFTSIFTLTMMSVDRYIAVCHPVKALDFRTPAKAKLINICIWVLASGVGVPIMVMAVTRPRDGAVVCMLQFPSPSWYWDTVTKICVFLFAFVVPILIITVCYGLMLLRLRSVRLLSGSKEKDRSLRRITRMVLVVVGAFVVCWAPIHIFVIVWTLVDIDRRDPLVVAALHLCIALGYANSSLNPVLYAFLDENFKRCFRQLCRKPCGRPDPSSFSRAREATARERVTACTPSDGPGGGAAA

[11] = target: T4, Delta-type opioid receptor; experiment: SAR Analysis of Antagonists of the DOR Receptor using an Image-Based Assay - Set 2. [Related pubchem assays (depositor defined):AID1777, AID1785, AID1786, AID1966, AID2133, AID2136, AID2284, AID2285, AID2357]; type: functional
[12] = target: T2, Mu-type opioid receptor; experiment: SAR Analysis of Agonists of the MOR Receptor using an Image-Based Assay - Set 2. [Related pubchem assays (depositor defined):AID1777, AID1785, AID1786, AID1966, AID2133, AID2136, AID2284, AID2285, AID2352]; type: functional
[13] = target: T2, Mu-type opioid receptor; experiment: Counterscreen for agonists of heterodimerization of the mu 1 (OPRM1) and delta 1 (OPRD1) opioid receptors: Luminescence-based cell-based high throughput dose response assay to identify agonists of OPRM1 homodimerization.; type: functional
[14] = target: 5-hydroxytryptamine receptor 5A (Homo sapiens, UniProt P47898); experiment: Counterscreen for agonists of OPRM1-OPRD1 heterodimerization: luminescence-based cell-based high throughput dose response assay to identify agonists of 5-hydroxytryptamine (serotonin) 5A receptor (HTR5A). [Related pubchem assays (depositor defined):AID504326, AID504355, AID504692, AID504904, AID504905]; type: functional
Chain of 5-hydroxytryptamine receptor 5A (P47898 whole entry): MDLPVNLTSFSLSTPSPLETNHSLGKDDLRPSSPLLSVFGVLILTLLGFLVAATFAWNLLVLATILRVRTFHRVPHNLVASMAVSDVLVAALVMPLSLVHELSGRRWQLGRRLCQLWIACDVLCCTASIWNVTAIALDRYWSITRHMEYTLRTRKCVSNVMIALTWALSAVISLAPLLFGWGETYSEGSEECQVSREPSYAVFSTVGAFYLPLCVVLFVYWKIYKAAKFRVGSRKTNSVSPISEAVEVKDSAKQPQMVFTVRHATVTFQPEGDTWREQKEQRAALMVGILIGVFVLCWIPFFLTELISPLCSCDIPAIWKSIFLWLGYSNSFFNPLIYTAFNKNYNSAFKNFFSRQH

[15] = target: T4, Delta-type opioid receptor; experiment: Counterscreen for agonists of heterodimerization of the mu 1 (OPRM1) and delta 1 (OPRD1) opioid receptors: Luminescence-based cell-based high throughput dose response assay to identify agonists of OPRD1 homodimerization. [Related pubchem assays (depositor defined):AID504326, AID504355, AID504692, AID504904, AID504905]; type: functional
[16] = target: T5, Short transient receptor potential channel 4 (Mus musculus, UniProt Q9QUQ5); experiment: mouse TRPC4 channel activators, dose response, cell-based, HEK293 TRPC4/mu-opioid, Fluo-4 calcium (AID 434937); type: functional
T5 sequence (Q9QUQ5 whole entry): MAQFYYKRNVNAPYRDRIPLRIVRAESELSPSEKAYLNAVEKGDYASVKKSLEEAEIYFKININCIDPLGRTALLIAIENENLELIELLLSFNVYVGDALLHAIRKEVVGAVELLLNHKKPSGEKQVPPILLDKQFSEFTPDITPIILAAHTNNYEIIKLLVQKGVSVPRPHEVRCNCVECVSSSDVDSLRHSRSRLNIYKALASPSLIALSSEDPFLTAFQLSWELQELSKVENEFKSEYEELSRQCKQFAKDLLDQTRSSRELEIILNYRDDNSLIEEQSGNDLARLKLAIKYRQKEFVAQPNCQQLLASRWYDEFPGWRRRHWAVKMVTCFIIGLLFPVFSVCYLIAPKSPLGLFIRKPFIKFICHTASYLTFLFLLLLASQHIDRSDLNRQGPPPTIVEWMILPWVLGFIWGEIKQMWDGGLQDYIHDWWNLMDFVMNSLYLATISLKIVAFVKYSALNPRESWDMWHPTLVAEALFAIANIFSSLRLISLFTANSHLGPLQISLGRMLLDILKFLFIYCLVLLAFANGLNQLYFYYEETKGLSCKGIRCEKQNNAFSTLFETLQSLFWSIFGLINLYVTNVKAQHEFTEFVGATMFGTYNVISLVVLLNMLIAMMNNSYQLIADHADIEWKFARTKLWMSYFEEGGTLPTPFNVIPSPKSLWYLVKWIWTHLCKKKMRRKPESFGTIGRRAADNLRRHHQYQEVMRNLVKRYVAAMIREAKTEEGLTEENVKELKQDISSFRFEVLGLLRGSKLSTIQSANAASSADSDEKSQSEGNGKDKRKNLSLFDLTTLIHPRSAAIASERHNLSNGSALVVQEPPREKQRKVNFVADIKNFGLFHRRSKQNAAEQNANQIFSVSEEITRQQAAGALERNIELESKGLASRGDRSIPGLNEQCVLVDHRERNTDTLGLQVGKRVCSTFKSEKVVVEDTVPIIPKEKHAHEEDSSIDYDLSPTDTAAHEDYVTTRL

[17] = inhibitors of intracellular T. cruzi replication, confirmation, NIH3T3 host cells, beta-gal luminescence (AID 2044); type: functional, cell-based;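 further: intracellular parasites grown in NIH/3T3 mouse fibroblasts as host cells; luminescent beta-galactosidase reporter signal from transgenic T. cruzi replicating inside host cells; inhibitors lower the luminescence signal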
[18] = system: INS1; experiment: beta cell apoptosis inhibitors, cytokine rescue, dose response, luminescence, retest (AID 449756); type: functional, cell-based; settings: Rattus norvegicus;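 further: cell death triggered by IL-1 beta plus TNF-alpha plus IFN-gamma mixture; protective hits raise ATP signal compared with cytokine alone wells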
[19] = cytotoxicity toward NIH3T3 fibroblasts, dose response, counter-screen, cell-based, ATP luminescence, mouse fibroblasts (AID 2010); type: functional;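 further: cells exposed to compound for about 90 hours before reading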
[20] = cytotoxicity in HEK-293T NF-kB-Luc cells, dose response, cytotoxicity control for B/T-cell NF-kB inhibitor project, cell-based, uHTS hits (AID 489019); type: functional;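 further: IC50 reflects cytotoxicity as loss of cell viability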
[21] = system: Jurkat; experiment: antigen receptor-induced NF-kB inhibitors, dose response, Jurkat, luciferase reporter, luminescence, B- and T-cell (AID 489004); type: functional, cell-based; settings: Homo sapiens;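 further: NF-kB luciferase reporter Jurkat cells stimulated with PMA plus ionomycin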
[22] = target: T1, Cytochrome P450 1A2; remark: listed apart in the source
[23] = target: Cytochrome P450 3A4 (Homo sapiens, UniProt P08684);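 further: CYP3A4 tested as one member of a cytochrome P450 panel screen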
Chain of Cytochrome P450 3A4 (P08684 whole entry): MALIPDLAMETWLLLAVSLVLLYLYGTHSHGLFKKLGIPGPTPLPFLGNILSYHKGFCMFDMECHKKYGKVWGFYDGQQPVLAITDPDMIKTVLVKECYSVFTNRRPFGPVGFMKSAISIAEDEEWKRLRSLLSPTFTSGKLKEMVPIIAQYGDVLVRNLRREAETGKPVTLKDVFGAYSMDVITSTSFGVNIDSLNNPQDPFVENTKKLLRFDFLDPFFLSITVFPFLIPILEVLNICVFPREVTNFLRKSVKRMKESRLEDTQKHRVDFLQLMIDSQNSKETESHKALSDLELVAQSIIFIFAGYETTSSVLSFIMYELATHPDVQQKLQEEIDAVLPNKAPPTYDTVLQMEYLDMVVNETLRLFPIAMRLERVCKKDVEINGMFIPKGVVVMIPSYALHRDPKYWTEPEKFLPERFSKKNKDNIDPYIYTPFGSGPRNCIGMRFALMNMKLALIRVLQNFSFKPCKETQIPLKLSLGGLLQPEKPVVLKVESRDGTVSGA

[24] = target: Cytochrome P450 2C9 (Homo sapiens, UniProt P11712)
Chain of Cytochrome P450 2C9 (P11712 whole entry): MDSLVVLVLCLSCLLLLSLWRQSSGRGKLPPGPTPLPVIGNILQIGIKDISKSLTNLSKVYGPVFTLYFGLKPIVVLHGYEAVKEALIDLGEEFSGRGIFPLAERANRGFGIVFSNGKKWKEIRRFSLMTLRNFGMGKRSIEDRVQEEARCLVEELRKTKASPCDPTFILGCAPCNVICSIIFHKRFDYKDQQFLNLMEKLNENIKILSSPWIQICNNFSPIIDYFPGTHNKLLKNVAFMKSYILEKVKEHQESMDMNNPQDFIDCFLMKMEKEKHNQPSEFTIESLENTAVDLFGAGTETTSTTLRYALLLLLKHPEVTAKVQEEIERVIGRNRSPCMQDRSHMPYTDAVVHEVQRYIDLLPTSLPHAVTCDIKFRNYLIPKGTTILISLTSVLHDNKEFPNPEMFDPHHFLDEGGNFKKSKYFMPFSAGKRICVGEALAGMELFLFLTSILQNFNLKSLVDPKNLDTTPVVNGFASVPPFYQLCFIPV

[25] = system: Vero; experiment: cells; type: functional, cell-based; settings: Chlorocebus sabaeus
[26] = C. albicans growth with fluconazole, confirmation, fluorescence, retest (AID 2467); type: functional, cell-based
[27] = system: Vero; experiment: cells; type: functional; settings: Chlorocebus sabaeus
[28] = NIH-3T3 fibroblast cytotoxicity, dose response, cytotoxicity control, cell-based, fluorescence, Alamar Blue, secondary assay (AID 2327); type: functional;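 further: NIH-3T3 mouse fibroblasts cultured with fluconazole at 8 µg/mL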
[29] = target: T3, Kappa-type opioid receptor; type: functional
[30] = target: T3, Kappa-type opioid receptor; experiment: SAR analysis of small molecule agonists of the kappa opioid receptor via a luminescent beta-arrestin assay. [Related pubchem assays (depositor defined):AID1777, AID1786, AID1966, AID2133, AID2136, AID2348, AID2352, AID2357, AID2359, AID2370, AID2420, AID2478, AID2491, AID2492, AID2493, AID2497, AID2498, AID2500, AID449737, AID488822, AID488842]; type: functional
[31] = target: T2, Mu-type opioid receptor; experiment: MOR antagonists, SAR follow-up, image-based (AID 2420); type: functional;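 further: compounds added before stimulation of receptor with agonist DAMGO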
[32] = target: T3, Kappa-type opioid receptor; experiment: KOR agonist analogs, imaging readout, SAR follow-up, image-based (AID 2359); type: functional
[33] = target: T3, Kappa-type opioid receptor; experiment: KOR antagonists by imaging, SAR follow-up, image-based (AID 2348); type: functional
[34] = target: T4, Delta-type opioid receptor; experiment: DOR antagonists, SAR follow-up, image-based (AID 2357); type: functional
[35] = target: T3, Kappa-type opioid receptor; type: functional; remark: listed apart in the source
[36] = target: T3, Kappa-type opioid receptor; type: functional; remark: listed apart in the source
[37] = target: T4, Delta-type opioid receptor; experiment: HTS Image-Based Screen for Antagonists of the DOR Receptor. [Related pubchem assays (depositor defined):AID1777, AID1785, AID1786, AID2133]; type: functional
[38] = target: T2, Mu-type opioid receptor; experiment: HTS Image-Based Screen for Agonists of the MOR Receptor. [Related pubchem assays (depositor defined):AID1777, AID1785, AID1786, AID2133]; type: functional
[39] = target: T4, Delta-type opioid receptor; experiment: DOR agonists, SAR follow-up, image-based (AID 2370); type: functional
[40] = target: T4, Delta-type opioid receptor; experiment: HTS Image-Based Screen for Agonists of the DOR Receptor. [Related pubchem assays (depositor defined):AID1777, AID1786, AID2133]; type: functional
[41] = target: T2, Mu-type opioid receptor; experiment: MOR agonists by imaging, SAR follow-up, image-based (AID 2352); type: functional

Chain of Voltage-dependent T-type calcium channel subunit alpha-1H (O95180 whole entry): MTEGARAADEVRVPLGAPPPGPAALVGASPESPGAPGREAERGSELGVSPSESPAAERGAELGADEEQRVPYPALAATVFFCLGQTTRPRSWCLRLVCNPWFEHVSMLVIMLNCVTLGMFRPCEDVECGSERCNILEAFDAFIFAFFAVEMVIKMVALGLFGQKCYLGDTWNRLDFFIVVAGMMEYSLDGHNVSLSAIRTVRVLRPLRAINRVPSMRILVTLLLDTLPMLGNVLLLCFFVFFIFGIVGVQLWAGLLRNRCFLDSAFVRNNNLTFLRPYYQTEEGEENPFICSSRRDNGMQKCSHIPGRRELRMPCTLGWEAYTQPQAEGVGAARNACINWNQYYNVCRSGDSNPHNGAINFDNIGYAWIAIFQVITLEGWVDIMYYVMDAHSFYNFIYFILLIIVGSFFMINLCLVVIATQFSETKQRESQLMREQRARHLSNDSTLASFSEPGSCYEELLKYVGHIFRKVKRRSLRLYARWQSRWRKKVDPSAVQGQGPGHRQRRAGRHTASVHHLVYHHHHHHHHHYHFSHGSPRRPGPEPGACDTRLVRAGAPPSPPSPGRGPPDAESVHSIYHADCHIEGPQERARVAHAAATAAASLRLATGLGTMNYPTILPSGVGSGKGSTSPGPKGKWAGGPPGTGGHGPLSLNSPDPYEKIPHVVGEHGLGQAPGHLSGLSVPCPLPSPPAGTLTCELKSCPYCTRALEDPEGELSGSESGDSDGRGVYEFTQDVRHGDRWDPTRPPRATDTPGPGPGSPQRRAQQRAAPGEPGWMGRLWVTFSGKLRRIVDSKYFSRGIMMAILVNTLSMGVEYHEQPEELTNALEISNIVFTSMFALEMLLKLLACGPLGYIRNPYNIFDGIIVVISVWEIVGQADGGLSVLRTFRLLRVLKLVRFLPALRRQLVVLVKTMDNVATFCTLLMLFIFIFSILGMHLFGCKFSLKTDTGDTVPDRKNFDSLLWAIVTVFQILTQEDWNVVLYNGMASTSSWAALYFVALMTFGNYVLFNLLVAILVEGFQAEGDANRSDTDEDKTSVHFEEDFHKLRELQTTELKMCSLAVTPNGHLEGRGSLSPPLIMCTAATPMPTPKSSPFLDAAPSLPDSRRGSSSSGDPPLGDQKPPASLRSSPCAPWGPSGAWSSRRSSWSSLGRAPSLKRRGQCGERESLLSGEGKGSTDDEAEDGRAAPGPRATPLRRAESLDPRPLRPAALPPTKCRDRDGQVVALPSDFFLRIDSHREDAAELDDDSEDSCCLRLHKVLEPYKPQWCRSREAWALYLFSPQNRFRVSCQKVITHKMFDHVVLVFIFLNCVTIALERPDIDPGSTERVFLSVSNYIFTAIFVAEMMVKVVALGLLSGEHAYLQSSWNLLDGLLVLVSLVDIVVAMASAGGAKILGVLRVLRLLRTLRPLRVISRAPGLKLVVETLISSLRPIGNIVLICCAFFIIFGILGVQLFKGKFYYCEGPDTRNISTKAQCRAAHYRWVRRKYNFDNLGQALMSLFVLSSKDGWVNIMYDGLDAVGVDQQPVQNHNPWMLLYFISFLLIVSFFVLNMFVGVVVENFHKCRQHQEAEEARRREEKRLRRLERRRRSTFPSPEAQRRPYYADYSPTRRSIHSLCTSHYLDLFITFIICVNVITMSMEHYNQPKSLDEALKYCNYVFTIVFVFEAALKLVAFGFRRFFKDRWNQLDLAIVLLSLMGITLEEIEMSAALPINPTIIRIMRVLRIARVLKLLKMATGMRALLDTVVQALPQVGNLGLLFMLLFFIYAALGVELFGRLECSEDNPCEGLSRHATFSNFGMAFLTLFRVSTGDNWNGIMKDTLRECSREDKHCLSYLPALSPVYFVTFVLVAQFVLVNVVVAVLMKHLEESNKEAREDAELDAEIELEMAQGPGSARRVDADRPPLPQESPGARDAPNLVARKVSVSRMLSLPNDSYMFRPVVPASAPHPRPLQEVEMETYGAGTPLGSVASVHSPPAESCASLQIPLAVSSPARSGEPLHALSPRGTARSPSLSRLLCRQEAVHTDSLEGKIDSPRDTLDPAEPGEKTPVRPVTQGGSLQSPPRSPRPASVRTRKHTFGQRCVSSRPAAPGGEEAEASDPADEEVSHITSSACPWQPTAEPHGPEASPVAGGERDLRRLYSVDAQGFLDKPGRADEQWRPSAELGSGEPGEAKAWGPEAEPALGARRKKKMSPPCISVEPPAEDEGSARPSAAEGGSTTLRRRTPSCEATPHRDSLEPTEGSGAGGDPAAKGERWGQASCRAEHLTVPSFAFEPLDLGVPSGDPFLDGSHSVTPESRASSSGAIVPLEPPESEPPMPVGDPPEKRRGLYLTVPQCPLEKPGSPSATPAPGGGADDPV

CC(C)CN1C[C@@H]2C(CNC(=O)c3cc(Cl)cc(Cl)c3)[C@@H]2C1 (some centres not stated)
EC50 [1]: 10 µM (active)

COc1ccccc1OC[C@H](O)CN1CCN(CC(=O)Nc2c(C)cccc2C)CC1
AC50 [2]: inactive

COc1ccc2nc(Nc3nc(C)c(CCC(C)C)c(O)n3)nc(C)c2c1
IC50 [3]: 5.61 µM (active)
IC50 [4]: 1.95 µM (active)

COc1ccc(C(=O)C2CCCN(CCc3ccccc3)C2)cc1OC (configuration not stated)
EC50 [5]: 55.8 nM (active)

Fc1ccc(CSc2nnc(-c3ccccn3)n2Cc2cccs2)c(F)c1
IC50 [6]: > 32 µM (inactive)
EC50 [7]: 6.73 µM (active)
EC50 [8]: 5.68 µM (active)
IC50 [9]: > 32 µM (inactive)
EC50 [10]: > 32 µM (inactive)
IC50 [11]: > 32 µM (inactive)
EC50 [12]: > 32 µM (inactive)

CN1C(CC(=O)Nc2ccc(Br)cc2)c2ccccc2CC1(C)C (configuration not stated)
EC50 [13]: > 92.5 µM (inactive)
EC50 [14]: > 92.5 µM (inactive)
EC50 [15]: 86.4 µM (inactive)
EC50 [16]: 2.11 µM (active)

N=c1c2c(n(Cc3ccc(Br)cc3)c3c1CCC3)CCCC2
EC50 [17]: 260 nM (active)
AC50 [18]: 2.64 µM (active)
EC50 [19]: > 60 µM (inconclusive)
IC50 [20]: > 80 µM (inactive)
IC50 [21]: 24.6 µM (inactive)

CC(NC(=O)c1ccc(N2CCCC2=O)cc1)c1ccccc1 (configuration not stated)
AC50 [22]: 39.8 µM (inconclusive)
AC50 [23]: inconclusive
AC50 [24]: 15.8 µM (inconclusive)

Cc1cccc(C(=O)NNC(=S)NC(=O)c2cccs2)c1
IC50 [25]: 23.5 µM (active)
EC50 [26]: 2.47 µM (active)
CC50 [27]: > 25 µM (active)
EC50 [16]: 5.96 µM (active)
EC50 [28]: > 160 µM (inactive)

O=C(c1ccccn1)N(Cc1cccs1)C1(C(=O)NC2CCCCC2)CCCCC1
EC50 [29]: 103 nM
EC50 [30]: 116 nM (active)
IC50 [31]: > 32 µM (inactive)
EC50 [32]: < 60 nM (active)
IC50 [33]: > 32 µM (inactive)
IC50 [34]: > 32 µM (inactive)
EC50 [35]: < 500 nM
IC50 [36]: > 5 µM (inactive)
IC50 [37]: > 32 µM (inactive)
EC50 [38]: > 32 µM (inactive)
EC50 [39]: > 32 µM (inactive)
EC50 [40]: > 32 µM (inactive)
EC50 [41]: > 32 µM (inactive)
